{
  "source": "patent US9205064B2",
  "about": "“Methods for the diagnosis of oncological disorders using epimetabolic shifters, multidimensional intracellular molecules, or environmental influencers” (Berg LLC, priority 2009, dated 2015)",
  "key": {"[1]": {"test_system": "neonatal fibroblast cells", "assay": "Cell proliferation assay (coulter counter)", "format": "cell-based", "conditions": "HB 500 nM, 5 μM, 25 μM; benzoquinone 25, 50, 100 μM; 24 hours", "procedure": "A cell proliferation assay was also performed on neonatal fibroblast cells. The concentrations of HB tested were 500 nM, 5 μM, and 25 μM. HB was also tested in combination with benzoquinone at a concentrations of 25 μM, 50 μM, and 100 μM. Melanoma cells were seeded at 40 k cells per well and were treated for 24 hours. The cells were trypsinized and quantified using a coulter counter."}, "Melanoma cells": {"test_system": "Melanoma cells", "assay": "Cell proliferation assay (live cell count) of building block combinations", "format": "cell-based", "protocol": "This set of experiments used a cell proliferation assay to assess the effect of combining different building block molecules on cell proliferation.\nThe first study examined the effect of combining 4-Hydroxy-Benzoate with Benzoquinone. Cells were incubated for 48 hours, after which a cell count was performed for the live cells. Each test group was compared to the control, and each combination groups were compared to Benzoquinone control. The compounds were statistically analyzed for the addition of Benzoquinone.\nAdditional studies were performed testing additional molar ratios. For the first test 4-Hydroxybenzoic were tested at concentrations of 500 nM, 1 μM, and 50 μM. These concentrations were tested in combination with 2,3-Dimethoxy-5-methyl-p-benzoquinone (Benzo). The concentration of Benzo tested were 25 μM, 50 μM, and 100 μM. Melanoma cells were grown to 80% confluency and seeded in 6 well plates at a concentration of 40K cells per well. The cells were treated with CoQ10, 4-Hydroxybenzoate, Benzo, and a combination of 4-Hydroxybenzoate/Benzo.\nA T-test was performed with p<0.05 as statistically significant."}, "Bcl-2": {"test_system": "Bcl-2", "assay": "Western blot of Bcl-2 in Skmel-28 cells treated with CoQ10 building block components", "format": "cell-based", "protocol": "(§1) Skmel-28 melanoma cells were cultured in DMEM/F12 supplemented with 5% Fetal Bovine Serum (FBS) and 1× final concentration of Antibiotics. The cells were grown to 85% confluency and treated with building block components for 3, 6, 12 and 24 hours. The cells were then pelleted and a Western blot analysis was performed.\n(§2) In the Western Blot Analysis, the cells were pelleted in cold PBS, lysed, and the protein levels were quantified using a BCA protein assay. The whole cell lysate was loaded in a 4% loading 12% running Tris-HCl gel. The proteins were then transferred to a nitrocellulose paper then blocked with a 5% milk Tris-buffered solution for 1 hour. The proteins were then exposed to primary antibodies (Bcl-2 and Caspase-3) overnight. The nitrocellulose paper was then exposed to Pico Chemilluminescent for 5 min and the protein expression was recorded. After exposure, actin was quantified using the same method. Using ImageJ the levels of protein expression were quantified. A t-Test was used to analyze for statistical significance."}, "Caspase-3": {"test_system": "Caspase-3", "assay": "Western blot of Caspase-3 in Skmel-28 cells treated with CoQ10 building block components", "format": "cell-based", "protocol": "as §1, §2"}, "HDFa cells": {"test_system": "HDFa cells", "assay": "SeaHorse XF analyzer OCR and ECAR", "format": "cell-based, human", "text": "Environmental influencers (e.g., MIMs or Epi-shifters) may also be identified by changes in cellular energetics. One example of the measurement of cellular energetics are the real-time measures of the consumption of molecular oxygen and/or the change in pH of the media of a cell culture. For example, the ability of a potential epi-shifter to modulate the metabolic state of a cell may be analyzed using, for example, the XF24 Analyzer (Seahorse, Inc.). This technology allows for real time detection of oxygen and pH changes in a monolayer of cells in order to evaluate the bioenergetics of a cell microenvironment. The XF24 Analyzer measures and compares the rates of oxygen consumption (OCR), which is a measure of aerobic metabolism, and extracellular acidification (ECAR), which is a measure of glycolysis, both key indicators of cellular energetics.\n(SeaHorse Biosciences Inc, North Billerica, Mass.).\nIn this experiment, the OCR and extracellular acidification rate (ECAR) in normal cells lines were obtained in the presence and absence of CoQ10 to determine baseline values. It was observed that in its native nutrient environment, the basal OCR rates in normal cells lines are different, and are usually a function of the physiological roles of the cells in the body.\nFIGS. 29 and 30 describe the OCR in HDFa and HASMC cells grown in physiologically normal glucose (about 4.6 mM) and high glucose (hyperglycemic) conditions.\nTable 53, below, describes the ECAR values (mpH/min) in HDFa cells in the presence or absence of CoQ10 under normoxic and hypoxic conditions at 5.5 mM and 22 mM glucose."}, "[2]": {"conditions": "500 nM, 1 μM, 25 μM and 50 μM, all time points"}},
  "data": [
    {"molecule": "O=C(O)c1ccc(O)cc1", "note": "[4-Hydroxybenzoate, 4-hydroxy-benzoate]", "values": [
      {"measurement": "reduction in fibroblast cells", "setting": "[1]", "result": "did not show a significant reduction"},
      {"measurement": "cell number compared to the control", "setting": "Melanoma cells; 48 hours", "result": "significant decrease in cell number"},
      {"measurement": "cell proliferation", "setting": "Melanoma cells; HB 500 nM, 1 μM, 50 μM, p<0.05", "result": "significant decrease in cell proliferation"}
    ]},
    {"molecule": "CC(=O)SCCNC(=O)CCNC(=O)[C@H](O)C(C)(C)COP(=O)(O)OP(=O)(O)OC[C@H]1O[C@@H](n2cnc3c(N)ncnc32)[C@H](O)[C@@H]1OP(=O)(O)O", "note": "[Acetyl-CoA]", "values": [
      {"measurement": "Bcl-2 expression", "setting": "Bcl-2; [2]", "result": "no significant observed reduction"},
      {"measurement": "Caspase-3 expression", "setting": "Caspase-3; [2]", "result": "no significant observed"}
    ]},
    {"molecule": "N[C@H](Cc1ccc(O)cc1)C(=O)O", "note": "[D-Tyrosine]", "values": [
      {"measurement": "Caspase-3 expression", "setting": "Caspase-3; 5 μM, 12 hour", "result": "increase"}
    ]},
    {"molecule": "N[C@@H](Cc1ccc(O)cc1)C(=O)O", "note": "[L-Tyrosine]", "values": [
      {"measurement": "Bcl-2 expression", "setting": "Bcl-2; 500 μM and 5 μM, 24 hours", "result": "statistically significant decrease"}
    ]},
    {"molecule": "C[C@@](O)(CCO)CC(=O)O", "note": "[Mevalonic Acid, mevalonic acid]", "values": [
      {"measurement": "Bcl-2 expression", "setting": "Bcl-2; [2]", "result": "no significant reduction"},
      {"measurement": "Caspase-3 expression", "setting": "Caspase-3; [2]", "result": "no significant"}
    ]},
    {"molecule": "COc1cc(C(O)C(=O)O)ccc1O", "note": "(stereo not drawn) [VMA, 3-methoxy-4-hydroxymandelate]", "values": [
      {"measurement": "apoptotic effect (Bcl-2, Caspase-3)", "setting": "Bcl-2; 100 nM, 250 nM, 500 nM, 1 μM, 25 μM, 50 μM and 100 μM", "result": "no statistically significant apoptotic effect"}
    ]},
    {"molecule": "COC1=C(OC)C(=O)C(C/C=C(\\C)CC/C=C(\\C)CC/C=C(\\C)CC/C=C(\\C)CC/C=C(\\C)CC/C=C(\\C)CC/C=C(\\C)CC/C=C(\\C)CC/C=C(\\C)CCC=C(C)C)=C(C)C1=O", "note": "[compound 31510]", "values": [
      {"measurement": "ECAR", "setting": "HDFa cells; 50 μM, Hypoxia (5.5 mM)", "result": 5, "unit": "mpH/min"},
      {"measurement": "ECAR", "setting": "HDFa cells; 50 μM, Hypoxia (22 mM)", "result": 6, "unit": "mpH/min"},
      {"measurement": "ECAR", "setting": "HDFa cells; 50 μM, Normoxia (5.5 mM)", "result": 6, "unit": "mpH/min"},
      {"measurement": "ECAR", "setting": "HDFa cells; 50 μM, Normoxia (22 mM)", "result": 5, "unit": "mpH/min"},
      {"measurement": "ECAR", "setting": "HDFa cells; 100 μM, Hypoxia (5.5 mM)", "result": 5, "unit": "mpH/min"},
      {"measurement": "ECAR", "setting": "HDFa cells; 100 μM, Hypoxia (22 mM)", "result": 8, "unit": "mpH/min"},
      {"measurement": "ECAR", "setting": "HDFa cells; 100 μM, Normoxia (5.5 mM)", "result": 6, "unit": "mpH/min"},
      {"measurement": "ECAR", "setting": "HDFa cells; 100 μM, Normoxia (22 mM)", "result": 5, "unit": "mpH/min"}
    ]}
  ]
}
